Molecules are shown by their SMILES.

Data set [1] addresses T1, ATP-dependent translocase ABCB1 (Homo sapiens, UniProt P08183). The experiment in a line: Inhibition of P-glycoprotein in human K562/ADR cells after 30 mins by rhodamine 123 staining-based fluorescence assay. The format is cell-based. As to conditions: 0.5 h; call rule not given here.
The subject of another data set is HCT-116. Put plainly: Growth inhibition of human HCT116 cells at 10 uM after 48 hrs by MTT assay relative to control. The format is functional. Particulars: HCT-116, 48 h, read-out: GI. Background: Tetrazolium assays rely on reduction of a dye to a coloured formazan, in cell work by metabolically active cells.
Data set [2] can be described thus: Growth inhibition of human QSG7701 cells at 10 uM after 48 hrs by MTT assay relative to control. As to conditions: read-out: GI.
In the next data set the test system is K562. Put plainly: Growth inhibition of human K562 cells at 10 uM after 48 hrs by MTT assay relative to control. The format is functional. Particulars: K562, 48 h, read-out: GI.
In data set [3] the target is T1, ATP-dependent translocase ABCB1. Put plainly: Inhibition of P-glycoprotein in human K562/ADR cells at 10 to 20 uM after 30 mins by rhodamine 123 staining-based fluorescence assay. The format is cell-based. Particulars: 0.5 h.
For another data set, the system named is HepG2. Put plainly: Growth inhibition of human HepG2 cells at 10 uM after 48 hrs by MTT assay relative to control. Particulars: HepG2, 48 h, read-out: GI. The data set is classed as functional.
The target of data set [4] is T1, ATP-dependent translocase ABCB1. The experiment in a line: Inhibition of P-glycoprotein in human K562/ADR cells at 20 to 50 uM after 30 mins by rhodamine 123 staining-based fluorescence assay. The data set is classed as cell-based. Particulars: 0.5 h.

T1 sequence (P08183 whole entry): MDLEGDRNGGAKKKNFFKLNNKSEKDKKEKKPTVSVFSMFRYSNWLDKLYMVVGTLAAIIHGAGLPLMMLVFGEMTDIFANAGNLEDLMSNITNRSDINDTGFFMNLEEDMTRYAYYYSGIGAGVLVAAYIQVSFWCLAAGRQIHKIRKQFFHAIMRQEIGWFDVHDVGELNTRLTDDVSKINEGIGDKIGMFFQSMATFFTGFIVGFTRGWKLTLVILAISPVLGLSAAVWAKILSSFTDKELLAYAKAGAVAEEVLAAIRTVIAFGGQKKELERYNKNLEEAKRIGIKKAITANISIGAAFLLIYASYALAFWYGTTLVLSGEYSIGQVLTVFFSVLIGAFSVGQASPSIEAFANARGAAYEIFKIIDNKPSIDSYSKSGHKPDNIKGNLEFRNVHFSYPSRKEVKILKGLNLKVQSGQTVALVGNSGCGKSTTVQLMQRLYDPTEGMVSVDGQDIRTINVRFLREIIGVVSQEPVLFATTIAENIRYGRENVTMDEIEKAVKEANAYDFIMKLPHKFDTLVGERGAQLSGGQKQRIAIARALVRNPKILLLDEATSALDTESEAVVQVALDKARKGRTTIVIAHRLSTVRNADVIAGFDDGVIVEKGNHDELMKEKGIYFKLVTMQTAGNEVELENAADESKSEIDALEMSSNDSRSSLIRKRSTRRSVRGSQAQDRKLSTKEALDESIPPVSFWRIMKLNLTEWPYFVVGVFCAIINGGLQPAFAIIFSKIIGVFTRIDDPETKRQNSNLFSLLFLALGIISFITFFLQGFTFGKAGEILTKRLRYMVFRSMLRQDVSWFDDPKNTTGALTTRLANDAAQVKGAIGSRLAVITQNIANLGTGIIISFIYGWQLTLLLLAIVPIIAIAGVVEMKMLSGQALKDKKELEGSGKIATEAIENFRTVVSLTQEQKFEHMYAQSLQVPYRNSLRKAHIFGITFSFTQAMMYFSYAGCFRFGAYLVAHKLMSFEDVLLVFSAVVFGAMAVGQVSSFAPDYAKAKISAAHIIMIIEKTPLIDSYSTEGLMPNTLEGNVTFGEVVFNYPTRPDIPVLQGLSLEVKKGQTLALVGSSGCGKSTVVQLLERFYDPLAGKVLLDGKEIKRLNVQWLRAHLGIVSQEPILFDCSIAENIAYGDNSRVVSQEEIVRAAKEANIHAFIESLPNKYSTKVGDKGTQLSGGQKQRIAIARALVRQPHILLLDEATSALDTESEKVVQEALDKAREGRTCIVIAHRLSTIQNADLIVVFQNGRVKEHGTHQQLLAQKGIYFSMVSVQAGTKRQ

As for `COc1cc(OC)c2c(c1)C(=O)c1cc(CNCCCNCCCN)cc(OC)c1C2=O.Cl`, the “inhibition (INH)” value is given as “Dose-dependent effect” in data set [1] and “Active” in data set [3]. The inhibition of growth at 10 µM in the data set with HCT-116 is 15.3%; with K562, 0.01%; with HepG2 it was 5.85%. Further, the inhibition at 48 h, 10 µM in data set [2] is 0.01%.
For the compound `COc1cc(OC)c2c(c1)C(=O)c1cc(CNCCCN)cc(OC)c1C2=O.Cl.Cl`, in data set [4], the “inhibition (INH)” value is on record as “Not Active”. In addition, the inhibition of growth at 10 µM in the data set on HCT-116 was 31.9%; in the data set on K562, 0.01%; in the data set on HepG2, 0.01%. Besides, the inhibition at 48 h, 10 µM in data set [2] was found to be 5.77%.
Consider `COc1cc(OC)c2c(c1)C(=O)c1cc(CNCCCCN)cc(OC)c1C2=O.Cl.Cl`, for which, in data set [4], the “inhibition (INH)” value was “Not Active”. The inhibition of growth at 10 µM with HCT-116 turned out to be 27.5%; with K562, 0.01%; in the data set on HepG2 it was 0.01%. Also, the inhibition at 48 h, 10 µM in data set [2] worked out at 0.01%.
As for `COc1cc(OC)c2c(c1)C(=O)c1cc(CNCCN)cc(OC)c1C2=O.Cl.Cl`, the “inhibition (INH)” value in data set [4] is given as “Not Active”. Also, the figures for the inhibition of growth at 10 µM in the data set on HCT-116, in the data set on K562 and with HepG2 were 25.4%, 0.01% and 0.01%, respectively. In addition, the inhibition at 48 h, 10 µM in data set [2] turned out to be 2.55%.
Take `O=C1c2c(O)ccc(O)c2C(=O)c2c(NCCNCCO)ccc(NCCNCCO)c21` [MITOXANTRONE]: the inhibition of growth at 10 µM in the data set with HCT-116 amounted to 53.2%; in the data set with K562, 52.1%; in the data set on HepG2, 62.7%. Further, the inhibition at 48 h, 10 µM in data set [2] is 59%.
Regarding `COc1ccc(CCN(C)CCCC(C#N)(c2ccc(OC)c(OC)c2)C(C)C)cc1OC` (stereo unspecified) [VERAPAMIL], in data set [3], the “inhibition (INH)” value is on record as “Active”.

The values are drawn from ChEMBL document CHEMBL2429715, “Potent P-glycoprotein inhibition of emodin derivative: synthesis and biological evaluation” (Med Chem Res, 2013).
